US12528812B2 (Genentech, Inc., priority 2020, dated 2026)
Like-named read-outs stand apart in the source and are kept apart here.

Tests used:
[1] = biological target: T1, recombinant human JAK1 kinase domain protein (Residues 854-1154) (Homo sapiens, UniProt P23458); assay: JAK1 biochemical assay (LabChip mobility shift, Ki); conditions: read-out: Biochem JAK1 Ki
T1 construct: human JAK1 kinase domain protein (Residues 854-1154); purchased Proteros Biostructures GmbH (Martinsried, Germany); host or cells: insect cells
T1 sequence (P23458 854-1154): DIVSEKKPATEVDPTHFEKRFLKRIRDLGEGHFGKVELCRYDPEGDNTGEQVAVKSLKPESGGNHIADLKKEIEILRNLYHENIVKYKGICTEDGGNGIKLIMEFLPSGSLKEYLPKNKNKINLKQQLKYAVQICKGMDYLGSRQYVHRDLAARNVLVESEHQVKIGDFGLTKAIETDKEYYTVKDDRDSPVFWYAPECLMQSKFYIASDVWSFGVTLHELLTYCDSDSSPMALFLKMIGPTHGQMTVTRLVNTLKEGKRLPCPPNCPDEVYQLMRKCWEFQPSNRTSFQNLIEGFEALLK

[2] = system: IL-13-stimulated STAT6 phosphorylation in human lung bronchial epithelial BEAS-2B cell line; assay: P-STAT6 BEAS-2B + IL-13 cell assay; format: cell-based; conditions: BEAS2B cells, IL13 stimulation, read-out: Cellular JAK1 PSTAT6 BEAS2B + IL13
Outline: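 Phospho-STAT6 (Tyr641) was quantified in lysates by MSD electrochemiluminescence after human IL-13 challenge (250 ng/mL stock, 15 min, 37 °C). Before that, BEAS-2B cells cultured 48 h had 1 h compound exposure over 10 concentrations. Percent of control was fitted to a four-parameter logistic model to give IC50.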

[3] = biological target: Recombinant human JAK2 kinase domain protein (Residues 812-1132) (Homo sapiens, UniProt O60674); assay: JAK2 biochemical assay (LabChip mobility shift, Ki); conditions: Biochem JAK2 Ki
Sequence of Recombinant human JAK2 kinase domain protein (Residues 812-1132) (O60674 812-1132): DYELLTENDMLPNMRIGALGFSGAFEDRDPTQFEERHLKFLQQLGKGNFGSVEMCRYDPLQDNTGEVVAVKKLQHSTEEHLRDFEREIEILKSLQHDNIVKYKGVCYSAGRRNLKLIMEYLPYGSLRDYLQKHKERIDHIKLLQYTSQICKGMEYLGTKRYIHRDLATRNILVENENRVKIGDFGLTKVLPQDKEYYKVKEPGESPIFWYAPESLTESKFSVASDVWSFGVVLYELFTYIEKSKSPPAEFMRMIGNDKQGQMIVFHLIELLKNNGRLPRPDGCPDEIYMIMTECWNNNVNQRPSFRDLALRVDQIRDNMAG

[4] = system: EPO-stimulated P-STAT5 in TF-1 human erythroleukemia cells; assay: P-STAT5 TF-1 + EPO assay (JAK2 pathway); format: cell-based; conditions: EPO stimulation, read-out: Cellular JAK2 PSTAT5 TF-1 + EPO
Procedure: (§1) TF-1 human erythroleukemia cells (ATCC′; Manassas, VA; Catalog No. CRL-2003™) were grown in Roswell Park Memorial Institute (RPMI) medium supplemented with 10% heat-inactivated fetal bovine serum (FBS), 2 ng/mL granulocyte-macrophage colony-stimulating factor, 1× non-essential amino acids (NEAA), and 1 mM sodium pyruvate. The day before the assay, the cultures were transferred to Opti-MEM™, 1×NEAA, 1 mM sodium pyruvate, and 0.5% charcoal-stripped FBS (starve medium). Inhibitor stock solutions (5 mM in DMSO) were serially diluted 1:2 in DMSO to generate a 10-point concentration titration (at 500× test concentration), which was further diluted by a 50-fold dilution in Assay Medium (RPMI containing 1×NEAA and 1 mM sodium pyruvate) to generate a 10× concentration titration (in 2% DMSO). The cells (300,000 cells/well in 35 μL of Assay Medium) were seeded in 384-well Greiner plates. Diluted inhibitor at 10× concentration (5 μL) was added to the cells and the plates were incubated for 30 minutes at 37° C. in a humidified incubator. Cells were stimulated with the human recombinant cytokine at the respective EC90 concentrations, as previously determined for each individual lot. For the phosphorylated signal transducer and activator of transcription 6 (P-STAT6) TF-1+Interleukin-13 (IL-13) assay, 10 μL of 250 ng/mL IL-13 (R&D Systems; Minneapolis, MN) was added to the cells, which were then incubated for 10 minutes at 37° C. For the P-STAT5 TF-1+Erythropoietin (EPO) assay, 10 μL of 110 IU/mL EPO (Gibco Life Technologies, Catalog No. PHC2054) was added to the cells, which were then incubated for […] at 37° C. For both assays, the incubation was followed by addition to the cells of 5 μL of ice-cold 10× cell lysis buffer (Cell Signaling Technologies; Danvers, MA; Catalog No. 9803S) containing 1 mM phenylmethylsulfonyl fluoride (PMSF). Assay plates were frozen at −80° C. for a minimum of 1 hour. In the IL-13 assay, P-STAT6 was measured by coating goat anti-rabbit (GAR) plates (Meso Scale Discovery [MSD]; Rockville, MD; Catalog No. MSD L21RA-1) with rabbit anti-human total STAT6 antibody (Cell Signaling Technologies; Catalog No. 9362S), incubating the cell lysates in the coated plates overnight at 4° C., and then detecting with mouse anti-P-STAT6 (Tyr641) Clone 16E12 antibody (MilliporeSigma; Burlington, MA; Catalog No. 05-590, custom labeled by MSD with SULFO-tag) using standard MSD plate processing, washing, and detection protocols. In the EPO assay, P-STAT5 was detected using the phospho-STAT5a,b Whole Cell Lysate Kit (MSD; Catalog No. K150IGD-1). The electrochemiluminescence (ECL) signal of wells was read on the MESO SECTOR 5600 (MSD) reader.
(§2) Data analysis was performed by subtracting the negative control (cytokine stimulated and 20 μM control inhibitor-treated cells) mean ECL value from the ECL value of all wells, determining percent of control for test compound well ECL values relative to the positive control (cytokine stimulated and DMSO-treated cells) mean ECL value, and determining the IC50 for test compounds with a four-parameter logistic fit model as shown in Equation 4.

[5] = system: IL-13-stimulated P-STAT6 in TF-1 human erythroleukemia cells; assay: P-STAT6 TF-1 + IL-13 assay (JAK1 pathway); format: cell-based; conditions: IL13 stimulation, read-out: Cellular JAK1 PSTAT6 TF-1 + IL13
Procedure: as §1, §2

O=C(Nc1c[nH]nc1-c1cc(Oc2cn[nH]c2)ccc1OC(F)F)c1cnn2cccnc12 [Example 173, N-[3-[2-(difluoromethoxy)-5-(1H-pyrazol-4-yloxy)phenyl]-1H-pyrazol-4-yl]pyrazolo[1,5-a]pyrimidine-3-carboxamide]
Ki [1]: 0.13 nM | IC50 ([2]; Homo sapiens, BEAS-2B): 82 nM | Ki [3]: 0.076 nM | IC50 ([4]; Homo sapiens, TF-1, TF-1 cells): 68 nM | IC50 ([5]; Homo sapiens, TF-1, TF-1 cells): 24 nM

Cn1ccc(Oc2ccc(OC(F)F)c(-c3nn(C)cc3NC(=O)c3cnn4cccnc34)c2)n1 [Example 143, N-[3-[2-(difluoromethoxy)-5-(1-methylpyrazol-3-yl)oxy-phenyl]-1-methyl-pyrazol-4-yl]pyrazolo[1,5-a]pyrimidine-3-carboxamide]
Ki [1]: 0.69 nM | IC50 ([2]; Homo sapiens, BEAS-2B): 26 nM | Ki [3]: 0.36 nM | IC50 ([4]; Homo sapiens, TF-1, TF-1 cells): 23 nM | IC50 ([5]; Homo sapiens, TF-1, TF-1 cells): 3 nM

CN1CCC(n2cc(Oc3ccc(OC(F)F)c(-c4nn(C)cc4NC(=O)c4cnn5cccnc45)c3)cn2)C1 (racemic) [Example 141, N-[3-[2-(difluoromethoxy)-5-[1-[rac-(3R)-1-methylpyrrolidin-3-yl]pyrazol-4-yl]oxy-phenyl]-1-methyl-pyrazol-4-yl]pyrazolo[1,5-a]pyrimidine-3-carboxamide]
Ki [1]: 1.6 nM | IC50 [2]: 46 nM | Ki [3]: 1.2 nM | IC50 ([4]; Homo sapiens, TF-1, TF-1 cells): 33 nM | IC50 ([5]; Homo sapiens, TF-1, TF-1 cells): 12 nM

CN1CC(O)(c2cccc(Oc3ccc(OC(F)F)c(-c4nn(C)cc4NC(=O)c4cnn5cccnc45)c3)c2)C1 [Example 79, N-[3-[2-(difluoromethoxy)-5-[3-(3-hydroxy-l-methyl-azetidin-3-yl)phenoxy]phenyl]-1-methyl-pyrazol-4-yl]pyrazolo[1,5-a]pyrimidine-3-carboxamide]
Ki [1]: 0.24 nM | IC50 ([2]; Homo sapiens, BEAS-2B): 8 nM | Ki [3]: 0.25 nM | IC50 ([4]; Homo sapiens, TF-1, TF-1 cells): 4.8 nM | IC50 ([5]; Homo sapiens, TF-1, TF-1 cells): 8.2 nM

Cn1cc(NC(=O)c2cnn3cccnc23)c(-c2cc(Oc3cnn([C@@H]4CNCC[C@H]4O)c3)ccc2OC(F)F)n1 (stereo in doubt) [Example 181, N-[3-[2-(difluoromethoxy)-5-[1-[rac-(3R,4R)-4-hydroxy-3-piperidyl]pyrazol-4-yl]oxy-phenyl]-1-methyl-pyrazol-4-yl]pyrazolo[1,5-a]pyrimidine-3-carboxamide]
Ki [1]: 0.29 nM | IC50 ([2]; Homo sapiens, BEAS-2B): 60 nM | Ki [3]: 0.23 nM | IC50 ([4]; Homo sapiens, TF-1, TF-1 cells): 160 nM | IC50 ([5]; Homo sapiens, TF-1, TF-1 cells): 76 nM

Cn1cc(NC(=O)c2cnn3cccnc23)c(-c2cc(Oc3cnn(C(F)F)c3)ccc2OC(F)F)n1 [Example 132, N-[3-[2-(difluoromethoxy)-5-[1-(difluoromethyl)pyrazol-4-yl]oxy-phenyl]-1-methyl-pyrazol-4-yl]pyrazolo[1,5-a]pyrimidine-3-carboxamide]
Ki [1]: 0.4 nM | IC50 ([2]; Homo sapiens, BEAS-2B): 14 nM | Ki [3]: 0.24 nM | IC50 ([4]; Homo sapiens, TF-1, TF-1 cells): 7.6 nM | IC50 ([5]; Homo sapiens, TF-1, TF-1 cells): 4.6 nM

CN1CCC(n2cc(Oc3ccc(OC(F)F)c(-c4nn(C)cc4NC(=O)c4cnn5cccnc45)c3)cn2)C(O)C1 (stereo not drawn) [Example 186, N-[3-[2-(difluoromethoxy)-5-[1-(3-hydroxy-1-methyl-4-piperidyl)pyrazol-4-yl]oxy-phenyl]-1-methyl-pyrazol-4-yl]pyrazolo[1,5-a]pyrimidine-3-carboxamide]
Ki [1]: 0.76 nM | IC50 ([2]; Homo sapiens, BEAS-2B): 48 nM | Ki [3]: 0.39 nM | IC50 ([4]; Homo sapiens, TF-1, TF-1 cells): 58 nM | IC50 ([5]; Homo sapiens, TF-1, TF-1 cells): 22 nM

Cn1cc(Oc2ccc(OC(F)F)c(-c3nn(C)cc3NC(=O)c3cnn4cccnc34)c2)cn1 [Example 59, N-[3-[2-(difluoromethoxy)-5-(1-methylpyrazol-4-yl)oxy-phenyl]-1-methyl-pyrazol-4-yl]pyrazolo[1,5-a]pyrimidine-3-carboxamide]
Ki [1]: 0.31 nM | IC50 ([2]; Homo sapiens, BEAS-2B): 13 nM | Ki [3]: 0.18 nM | IC50 ([4]; Homo sapiens, TF-1, TF-1 cells): 7.3 nM | IC50 ([5]; Homo sapiens, TF-1, TF-1 cells): 4.6 nM

CC(C)N1CC(O)(Cn2cc(Oc3ccc(OC(F)F)c(-c4nn(C)cc4NC(=O)c4cnn5cccnc45)c3)cn2)C1 [Example 201, N-[3-[2-(difluoromethoxy)-5-[1-[(3-hydroxy-1-isopropyl-azetidin-3-yl)methyl]pyrazol-4-yl]oxy-phenyl]-1-methyl-pyrazol-4-yl]pyrazolo[1,5-a]pyrimidine-3-carboxamide]
Ki [1]: 0.46 nM | IC50 ([2]; Homo sapiens, BEAS-2B): 34 nM | Ki [3]: 0.34 nM | IC50 ([4]; Homo sapiens, TF-1, TF-1 cells): 21 nM | IC50 ([5]; Homo sapiens, TF-1, TF-1 cells): 14 nM

CC(=O)n1cc(Oc2ccc(OC(F)F)c(-c3nn(C)cc3NC(=O)c3cnn4cccnc34)c2)cn1 [Example 192, N-[3-[5-(1-acetylpyrazol-4-yl)oxy-2-(difluoromethoxy)phenyl]-1-methyl-pyrazol-4-yl]pyrazolo[1,5-a]pyrimidine-3-carboxamide]
Ki [1]: 0.28 nM | IC50 ([2]; Homo sapiens, BEAS-2B): 9.3 nM | Ki [3]: 0.2 nM | IC50 ([4]; Homo sapiens, TF-1, TF-1 cells): 2.1 nM | IC50 ([5]; Homo sapiens, TF-1, TF-1 cells): 3.3 nM

CN1CC(O)(c2cc(F)cc(Oc3ccc(OC(F)F)c(-c4nn(C)cc4NC(=O)c4cnn5cccnc45)c3)c2)C1 [Example 96, N-[3-[2-(difluoromethoxy)-5-[3-fluoro-5-(3-hydroxy-1-methyl-azetidin-3-yl)phenoxy]phenyl]-1-methyl-pyrazol-4-yl]pyrazolo[1,5-a]pyrimidine-3-carboxamide]
Ki [1]: 0.25 nM | IC50 ([2]; Homo sapiens, BEAS-2B): 13 nM | Ki [3]: 0.26 nM | IC50 ([4]; Homo sapiens, TF-1, TF-1 cells): 3 nM | IC50 ([5]; Homo sapiens, TF-1, TF-1 cells): 5.2 nM

CN1CCC(n2cc(Oc3ccc(OC(F)F)c(-c4nn(C)cc4NC(=O)c4cnn5cccnc45)c3)cn2)C(O)C1 (stereo not drawn) [Example 187, N-[3-[2-(difluoromethoxy)-5-[1-(3-hydroxy-1-methyl-4-piperidyl)pyrazol-4-yl]oxy-phenyl]-1-methyl-pyrazol-4-yl]pyrazolo[1,5-a]pyrimidine-3-carboxamide]
Ki [1]: 0.35 nM | IC50 [2]: 44 nM | Ki [3]: 0.24 nM | IC50 ([4]; TF-1 cells): 38 nM | IC50 ([5]; TF-1 cells): 34 nM
